According to the supplement of paper PMC10307832:

How the values were obtained:
Experiment in all cases: relative viability (nuclei count vs DMSO), 5 days (fraction); higher = more cells survive
[1] = compound: Cc1ccc2nc(NCCN)c3ncc(C)n3c2c1 + NC(=O)Nc1cc(-c2cccc(F)c2)sc1C(=O)N[C@H]1CCCNC1 [AZD7762] (partner 0.2 µM)
How it was run: (§1)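 Relative viability equals treated-well nuclei counts divided by vehicle-well nuclei counts. Counts came from 4× images of lung cancer cell lines grown in 1536-well plates for 5 days after pin-tool dosing on the day after seeding. Dosing used one drug alone or a fixed anchor-drug dose plus five library-drug doses (not always all listed) in √10 steps, and values are medians of duplicate plates.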

[2] = compound: Cc1ccc2nc(NCCN)c3ncc(C)n3c2c1 + O=C(c1cc(Cc2n[nH]c(=O)c3ccccc23)ccc1F)N1CCN(C(=O)C2CC2)CC1 [Olaparib] (partner 8 µM)
How it was run: as §1

[3] = compound: O=C(/C=C/c1ccccc1)NC(NC(=S)Nc1cccc2cccnc12)C(Cl)(Cl)Cl [Salubrinal] + COc1cc2c(Oc3ccc(NC(=O)C4(C(=O)Nc5ccc(F)cc5)CC4)cc3F)ccnc2cc1OCCCN1CCOCC1 [Foretinib] (partner 0.25 µM)
How it was run: as §1

[4] = compound: O=C(/C=C/c1ccccc1)NC(NC(=S)Nc1cccc2cccnc12)C(Cl)(Cl)Cl [Salubrinal] + C[C@@H](Oc1cc(-c2cnn(C3CCNCC3)c2)cnc1N)c1c(Cl)ccc(F)c1Cl [Crizotinib] (partner 1 µM)
How it was run: as §1

Cell Line: ChaGo-K-1
- relative viability ([1]; first compound 0.04 µM): 0.946
- relative viability ([1]; first compound 0.1265 µM): 0.901
- relative viability ([1]; first compound 0.4 µM): 0.874
- relative viability ([1]; first compound 1.265 µM): 0.808
- relative viability ([1]; first compound 4 µM): 0.921
- relative viability ([2]; first compound 0.04 µM): 0.411
- relative viability ([2]; first compound 0.1265 µM): 0.458
- relative viability ([2]; first compound 0.4 µM): 0.412
- relative viability ([2]; first compound 1.265 µM): 0.426
- relative viability ([2]; first compound 4 µM): 0.402
- relative viability ([3]; first compound 0.08 µM): 0.989
- relative viability ([3]; first compound 0.253 µM): 0.956
- relative viability ([3]; first compound 0.8 µM): 0.892
- relative viability ([3]; first compound 2.53 µM): 0.869
- relative viability ([3]; first compound 8 µM): 0.802
- relative viability ([4]; first compound 0.08 µM): 1.25
- relative viability ([4]; first compound 0.253 µM): 0.927
- relative viability ([4]; first compound 0.8 µM): 1.44
- relative viability ([4]; first compound 2.53 µM): 1.1
- relative viability ([4]; first compound 8 µM): 0.929

Cell Line: EBC-1
- relative viability ([2]; first compound 0.04 µM): 0.679
- relative viability ([2]; first compound 0.1265 µM): 0.681
- relative viability ([2]; first compound 0.4 µM): 0.72
- relative viability ([2]; first compound 1.265 µM): 0.602
- relative viability ([2]; first compound 4 µM): 0.546
- relative viability ([3]; first compound 0.08 µM): 0.112
- relative viability ([3]; first compound 0.253 µM): 0.0951
- relative viability ([3]; first compound 0.8 µM): 0.12
- relative viability ([3]; first compound 2.53 µM): 0.102
- relative viability ([3]; first compound 8 µM): 0.0993
- relative viability ([4]; first compound 0.08 µM): 0.207
- relative viability ([4]; first compound 0.253 µM): 0.214
- relative viability ([4]; first compound 0.8 µM): 0.22
- relative viability ([4]; first compound 2.53 µM): 0.211
- relative viability ([4]; first compound 8 µM): 0.18

Cell Line: EKVX
- relative viability ([1]; first compound 0.04 µM): 0.723
- relative viability ([1]; first compound 0.1265 µM): 0.704
- relative viability ([1]; first compound 0.4 µM): 0.693
- relative viability ([1]; first compound 1.265 µM): 0.682
- relative viability ([1]; first compound 4 µM): 0.525
- relative viability ([2]; first compound 0.04 µM): 0.941
- relative viability ([2]; first compound 0.1265 µM): 0.82
- relative viability ([2]; first compound 0.4 µM): 0.775
- relative viability ([2]; first compound 1.265 µM): 0.706
- relative viability ([2]; first compound 4 µM): 0.737
- relative viability ([3]; first compound 0.08 µM): 0.755
- relative viability ([3]; first compound 0.253 µM): 0.776
- relative viability ([3]; first compound 0.8 µM): 0.82
- relative viability ([3]; first compound 2.53 µM): 0.714
- relative viability ([3]; first compound 8 µM): 0.792
- relative viability ([4]; first compound 0.08 µM): 1.16
- relative viability ([4]; first compound 0.253 µM): 0.811
- relative viability ([4]; first compound 0.8 µM): 0.971
- relative viability ([4]; first compound 2.53 µM): 0.974
- relative viability ([4]; first compound 8 µM): 1.07

Cell Line: EMC-BAC-2
- relative viability ([1]; first compound 0.04 µM): 1.2
- relative viability ([1]; first compound 0.1265 µM): 1.11
- relative viability ([1]; first compound 0.4 µM): 1.04
- relative viability ([1]; first compound 1.265 µM): 1.06
- relative viability ([1]; first compound 4 µM): 1.02
- relative viability ([2]; first compound 0.04 µM): 0.519
- relative viability ([2]; first compound 0.1265 µM): 0.502
- relative viability ([2]; first compound 0.4 µM): 0.507
- relative viability ([2]; first compound 1.265 µM): 0.456
- relative viability ([2]; first compound 4 µM): 0.488
- relative viability ([3]; first compound 0.08 µM): 0.975
- relative viability ([3]; first compound 0.253 µM): 1
- relative viability ([3]; first compound 0.8 µM): 1.21
- relative viability ([3]; first compound 2.53 µM): 1.03
- relative viability ([3]; first compound 8 µM): 0.98
- relative viability ([4]; first compound 0.08 µM): 0.749
- relative viability ([4]; first compound 0.253 µM): 0.676
- relative viability ([4]; first compound 0.8 µM): 0.811
- relative viability ([4]; first compound 2.53 µM): 0.721
- relative viability ([4]; first compound 8 µM): 0.76

Cell Line: EPLC-272H
- relative viability ([1]; first compound 0.04 µM): 0.228
- relative viability ([1]; first compound 0.1265 µM): 0.404
- relative viability ([1]; first compound 0.4 µM): 0.214
- relative viability ([1]; first compound 1.265 µM): 0.177
- relative viability ([1]; first compound 4 µM): 0.166
- relative viability ([2]; first compound 0.04 µM): 0.869
- relative viability ([2]; first compound 0.1265 µM): 0.814
- relative viability ([2]; first compound 0.4 µM): 0.98
- relative viability ([2]; first compound 1.265 µM): 0.686
- relative viability ([2]; first compound 4 µM): 0.778
- relative viability ([3]; first compound 0.08 µM): 0.853
- relative viability ([3]; first compound 0.253 µM): 0.655
- relative viability ([3]; first compound 0.8 µM): 0.65
- relative viability ([3]; first compound 2.53 µM): 0.64
- relative viability ([3]; first compound 8 µM): 0.519
- relative viability ([4]; first compound 0.08 µM): 0.976
- relative viability ([4]; first compound 0.253 µM): 0.839
- relative viability ([4]; first compound 0.8 µM): 0.887
- relative viability ([4]; first compound 2.53 µM): 1.03
- relative viability ([4]; first compound 8 µM): 0.949

Cell Line: H3255
- relative viability ([1]; first compound 0.04 µM): 0.923
- relative viability ([1]; first compound 0.1265 µM): 0.963
- relative viability ([1]; first compound 0.4 µM): 0.829
- relative viability ([1]; first compound 1.265 µM): 0.76
- relative viability ([1]; first compound 4 µM): 0.746
- relative viability ([2]; first compound 0.04 µM): 0.561
- relative viability ([2]; first compound 0.1265 µM): 0.482
- relative viability ([2]; first compound 0.4 µM): 0.516
- relative viability ([2]; first compound 1.265 µM): 0.59
- relative viability ([2]; first compound 4 µM): 0.47
- relative viability ([3]; first compound 0.08 µM): 0.898
- relative viability ([3]; first compound 0.253 µM): 0.953
- relative viability ([3]; first compound 0.8 µM): 1.01
- relative viability ([3]; first compound 2.53 µM): 0.822
- relative viability ([3]; first compound 8 µM): 0.874
- relative viability ([4]; first compound 0.08 µM): 1.16
- relative viability ([4]; first compound 0.253 µM): 0.823
- relative viability ([4]; first compound 0.8 µM): 1.12
- relative viability ([4]; first compound 2.53 µM): 0.804
- relative viability ([4]; first compound 8 µM): 0.775

Cell Line: HARA
- relative viability ([1]; first compound 0.04 µM): 0.401
- relative viability ([1]; first compound 0.1265 µM): 0.33
- relative viability ([1]; first compound 0.4 µM): 0.256
- relative viability ([1]; first compound 1.265 µM): 0.274
- relative viability ([1]; first compound 4 µM): 0.337
- relative viability ([2]; first compound 0.04 µM): 0.73
- relative viability ([2]; first compound 0.1265 µM): 0.782
- relative viability ([2]; first compound 0.4 µM): 0.791
- relative viability ([2]; first compound 1.265 µM): 0.759
- relative viability ([2]; first compound 4 µM): 0.365
- relative viability ([3]; first compound 0.08 µM): 0.836
- relative viability ([3]; first compound 0.253 µM): 0.628
- relative viability ([3]; first compound 0.8 µM): 0.917
- relative viability ([3]; first compound 2.53 µM): 1.08
- relative viability ([3]; first compound 8 µM): 0.69
- relative viability ([4]; first compound 0.08 µM): 1.21
- relative viability ([4]; first compound 0.253 µM): 0.911
- relative viability ([4]; first compound 0.8 µM): 1.03
- relative viability ([4]; first compound 2.53 µM): 1.14
- relative viability ([4]; first compound 8 µM): 0.868

Cell Line: HCC-15
- relative viability ([1]; first compound 0.04 µM): 1.23
- relative viability ([1]; first compound 0.1265 µM): 1.27
- relative viability ([1]; first compound 0.4 µM): 1.19
- relative viability ([1]; first compound 1.265 µM): 1.17
- relative viability ([1]; first compound 4 µM): 1.18
- relative viability ([2]; first compound 0.04 µM): 0.648
- relative viability ([2]; first compound 0.1265 µM): 0.752
- relative viability ([2]; first compound 0.4 µM): 0.7
- relative viability ([2]; first compound 1.265 µM): 0.75
- relative viability ([2]; first compound 4 µM): 0.622
- relative viability ([3]; first compound 0.08 µM): 1.21
- relative viability ([3]; first compound 0.253 µM): 0.999
- relative viability ([3]; first compound 0.8 µM): 1.07
- relative viability ([3]; first compound 2.53 µM): 1.08
- relative viability ([3]; first compound 8 µM): 1.06
- relative viability ([4]; first compound 0.08 µM): 0.984
- relative viability ([4]; first compound 0.253 µM): 0.651
- relative viability ([4]; first compound 0.8 µM): 0.946
- relative viability ([4]; first compound 2.53 µM): 0.883
- relative viability ([4]; first compound 8 µM): 0.785
